Assay results as given in ChEMBL document CHEMBL1201862, “PubChem BioAssay data set” (2004).
Active and inactive are the calls of the source.

Tested on: not listed separately
Assay: P. falciparum ATP4 D1247Y mutant growth inhibitors, dose response, NITD609-resistant line, SYBR Green, dry powder (AID 1159571);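 further: parasites synchronized at ring stage by sorbitol before testing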
Format: functional, cell-based
Settings: not given

| Structure (SMILES) | AC50 |
| --- | --- |
| COc1ccc(S(=O)(=O)N2CCC3(CC2)CN(Cc2ccncc2)[C@H](CO)c2[nH]c4cc(OC)ccc4c23)cc1 | 2.22 µM (active) |
| CO[C@@H]1CN(C)C(=O)c2ccc(NC(=O)c3nc4ccccc4s3)cc2OC[C@@H](C)N(Cc2ccccc2)C[C@H]1C | 1.08 µM (active) |

Tested on: not listed separately
Assay: HepG2 cell cytotoxicity, dose response, cytotoxicity control, plate reader, dry powder samples (AID 1159569);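 further: inhibitor potency with signal falling toward the positive control level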
Format: functional, cell-based
Settings: not given

| Structure (SMILES) | AC50 |
| --- | --- |
| COc1ccc(S(=O)(=O)N2CCC3(CC2)CN(Cc2ccncc2)[C@H](CO)c2[nH]c4cc(OC)ccc4c23)cc1 | 28.5 µM (active) |
| CO[C@@H]1CN(C)C(=O)c2ccc(NC(=O)c3nc4ccccc4s3)cc2OC[C@@H](C)N(Cc2ccccc2)C[C@H]1C | > 100 µM (inactive) |

Tested on: not listed separately
Assay: P. falciparum Dd2 growth inhibitors, dose response, SYBR Green, cherry-picked samples (AID 1159567)
Format: functional, cell-based
Settings: not given

| Structure (SMILES) | AC50 |
| --- | --- |
| COc1ccc(S(=O)(=O)N2CCC3(CC2)CN(Cc2ccncc2)[C@H](CO)c2[nH]c4cc(OC)ccc4c23)cc1 | 1.89 µM (active) |
| CO[C@@H]1CN(C)C(=O)c2ccc(NC(=O)c3nc4ccccc4s3)cc2OC[C@@H](C)N(Cc2ccccc2)C[C@H]1C | 1.12 µM (active) |

Tested on: not listed separately
Assay: cytotoxicity in HPDE-C7 cells, cell-based, fluorescence, HTS (AID 430)
Format: functional
Settings: Homo sapiens

| Structure (SMILES) | EC50 |
| --- | --- |
| N#C/C(=C\c1ccc[nH]1)Sc1nc2ccccc2s1 | > 20 µM (not active) |
| COc1cc2c(cc1O)C(SC)=NC(C)(C)C2 | 14.1 µM (active) |
| Cc1[nH]c2ccccc2c1C(O)CN1CCN(c2cccc(C(F)(F)F)c2)CC1 (centres undefined) | 7.14 µM (active) |
| CCCCc1ccc(Nc2nc(O)cc(CCC)n2)cc1 | 10.8 µM (active) |

Tested on: not listed separately
Assay: cytotoxicity in KRAS-transformed pancreatic duct cells, primary screen, cell-based, fluorescence, HTS (AID 431);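 further: cell line used: HPDE-C7K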
Format: functional
Settings: Homo sapiens

| Structure (SMILES) | EC50 |
| --- | --- |
| N#C/C(=C\c1ccc[nH]1)Sc1nc2ccccc2s1 | > 20 µM (not active) |
| COc1cc2c(cc1O)C(SC)=NC(C)(C)C2 | 13.6 µM (active) |
| Cc1[nH]c2ccccc2c1C(O)CN1CCN(c2cccc(C(F)(F)F)c2)CC1 (centres undefined) | 6.67 µM (active) |
| CCCCc1ccc(Nc2nc(O)cc(CCC)n2)cc1 | 6.75 µM (active) |

Tested on: not listed separately
Assay: P. falciparum Dd2 growth inhibitors, dose response, SYBR Green, dry powder samples (AID 1159566);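 further: potency for growth inhibition with lower SYBR green DNA signal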
Format: functional, cell-based
Settings: not given

| Structure (SMILES) | AC50 |
| --- | --- |
| COc1ccc(S(=O)(=O)N2CCC3(CC2)CN(Cc2ccncc2)[C@H](CO)c2[nH]c4cc(OC)ccc4c23)cc1 | 1.72 µM (active) |
| CO[C@@H]1CN(C)C(=O)c2ccc(NC(=O)c3nc4ccccc4s3)cc2OC[C@@H](C)N(Cc2ccccc2)C[C@H]1C | 0.829 µM (active) |

Target: T1, Microphthalmia-associated transcription factor (Homo sapiens, UniProt O75030)
T1 sequence (O75030 whole entry): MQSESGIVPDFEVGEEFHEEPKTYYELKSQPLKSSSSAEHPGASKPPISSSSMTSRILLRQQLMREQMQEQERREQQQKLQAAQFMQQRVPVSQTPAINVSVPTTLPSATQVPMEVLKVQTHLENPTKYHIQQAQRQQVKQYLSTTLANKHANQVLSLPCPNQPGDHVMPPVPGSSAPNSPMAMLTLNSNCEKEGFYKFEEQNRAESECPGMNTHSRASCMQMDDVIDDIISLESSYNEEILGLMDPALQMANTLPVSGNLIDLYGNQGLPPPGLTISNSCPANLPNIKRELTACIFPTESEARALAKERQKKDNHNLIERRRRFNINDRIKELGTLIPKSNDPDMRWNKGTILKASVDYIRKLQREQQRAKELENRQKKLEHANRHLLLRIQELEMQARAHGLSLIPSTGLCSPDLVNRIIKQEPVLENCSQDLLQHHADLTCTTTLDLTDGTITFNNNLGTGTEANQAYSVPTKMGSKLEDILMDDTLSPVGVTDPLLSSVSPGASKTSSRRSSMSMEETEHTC
Assay: TRPM1 promoter luciferase signal decrease, dose response, MITF inhibitor project, cell-based, SK-MEL-5, cherry-picked, set 3 (AID 493073);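 further: SK-MEL-5 melanoma cells with luciferase driven by the MITF target TRPM1 promoter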
Format: functional
Settings: not given

| Structure (SMILES) | AC50 |
| --- | --- |
| COc1cc2c(cc1O)C(SC)=NC(C)(C)C2 | 11.3 µM (active) |

Tested on: not listed separately
Assay: P. falciparum 3D7-ScDHODH growth inhibitors, dose response, SYBR Green, dry powder samples (AID 1159570);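 further: parasite growth measured after 72 hours of compound exposure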
Format: functional, cell-based
Settings: not given

| Structure (SMILES) | AC50 |
| --- | --- |
| COc1ccc(S(=O)(=O)N2CCC3(CC2)CN(Cc2ccncc2)[C@H](CO)c2[nH]c4cc(OC)ccc4c23)cc1 | 2.14 µM (active) |
| CO[C@@H]1CN(C)C(=O)c2ccc(NC(=O)c3nc4ccccc4s3)cc2OC[C@@H](C)N(Cc2ccccc2)C[C@H]1C | 1.75 µM (active) |

Target: Prothrombin (Homo sapiens, UniProt P00734)
Assay: Thrombin 1536 HTS Dose Response Confirmation. [Related pubchem assays: 1046 (Thrombin 1536 HTS; hits were confirmed in this assay)]
Format: functional
Settings: not given

| Structure (SMILES) | IC50 |
| --- | --- |
| Cc1c(N(C)C(=O)C2CCCN2S(=O)(=O)c2ccccc2)c(=O)n(-c2ccccc2)n1C (centres undefined) | > 50 µM (not active) |
| CC(Sc1nncn1C)C(=O)NCc1ccc2c(c1)OCO2 (centres undefined) | > 50 µM (not active) |
| CC1=C(C#N)C(=O)N(C)C(=O)/C1=N/Nc1ccc(S(N)(=O)=O)cc1 | > 50 µM (not active) |
| Nc1cccc2c1C(=O)N(C(=O)c1ccco1)C2=O | 8.62 µM (active) |
| COc1ccc(C(=O)n2nc(-c3ccco3)nc2N)cc1OC | 2.23 µM (active) |
